For 21 molecules, IC50 results are on record in patent US20150252022A1, “RETINOIC ACID RECEPTOR-RELATED ORPHAN RECEPTOR MODULATORS AND USES THEREOF” (INNOV17 LLC, priority 2014, published 2015).

What is called IC50 is the midpoint of a concentration-inhibition curve. A high value points to weaker potency.

What all share (assay type): cell-based
Conditions in all cases: 72 h; human CD4+ T cells under TH17-polarizing conditions, 3 days, supernatant ELISA
For orientation: In an ELISA, binding on a coated surface is turned into a signal by an enzyme label.

The subject of experiment [1] is IL-17A. The experiment can be described thus: Human TH17 Cytokine Inhibition as measured by ELISA (IL-17A). Here is the method: (§1) Peripheral blood mononuclear cells (PBMCs) were sourced from freshly prepared leukocyte enriched plasma (buffy coat) from healthy donors (New York Blood Center). PBMCs were isolated by density gradient centrifugation using Ficoll-Paque™ PLUS (GE Healthcare). Human CD4+ T cells were seeded into 96-well plates (5×10^4 cells/well) and activated with plate-bound anti-human (h)-CD3 antibody and soluble h-aCD28 (both at 1 ug/ml; eBioscience) and differentiated into TH17 cells with 20 ng/mL h-IL-6, 5 ng/mL h-TGF-β1, 10 ng/mL h-IL-23 (eBioscience) and 10 ng/mL IL-1β (Miltenyi Biotec) in serum-free TexMACS Medium (Miltenyi Biotec) supplemented with 1% Penicillin/Streptomycin (Lonza) for 3 days. CD4+ T cells propagated under TH17-polarizing conditions were cultured in the presence or absence of various concentrations of compounds with a final concentration of 0.1% DMSO. Supernatants were collected and stored at −20° C. until assayed for IL-17A, IL-17F and IL-21 levels by “Ready-Set-Go” ELISA kits (eBioscience) as per manufacturer's instructions. Endpoint absorbance was read at 450 nm using a microplate reader (Perkin Elmer).

Experiment [2] deals with IL-21. The experiment can be described thus: Human TH17 Cytokine Inhibition as measured by ELISA (IL-21). Here is the method: as §1
Experiment [3] relates to IL-17F. The experiment can be described thus: Human TH17 Cytokine Inhibition as measured by ELISA (IL-17F). Here is the method:
as §1

For the molecule `Cc1cc2cc(-c3cn[nH]c3)ccc2n1CC1CC(C)N(C(=O)CCc2ccccc2)C1` (racemic) [Example 131, rac-1-(2-methyl-4-((2-methyl-5-(1H-pyrazol-4-yl)-1H-indol-1-yl)methyl)pyrrolidin-1-yl)-3-phenylpropan-1-one], the IC50 in experiment [1], in experiment [2] and in experiment [3] was less than 10 µM throughout.
On to `C[C@H]1C[C@@H](Cn2ccc3cc(-c4cn[nH]c4)ccc32)CN1C(=O)CCc1ccccc1` (relative stereo) [Example 127, cis-1-(4-((5-(1H-pyrazol-4-yl)-1H-indol-1-yl)methyl)-2-methylpyrrolidin-1-yl)-3-phenylpropan-1-one], for which the IC50 in experiment [1], in experiment [2] and in experiment [3] was less than 10 µM throughout.
As to `C[C@@H]1C[C@@H](Cn2ccc3cc(-c4cn[nH]c4)ccc32)CN1C(=O)CCc1ccccc1` (relative stereo) [Example 129, trans-1-(4-((5-(1H-pyrazol-4-yl)-1H-indol-1-yl)methyl)-2-methylpyrrolidin-1-yl)-3-phenylpropan-1-one], the IC50 in experiment [1], in experiment [2] and in experiment [3] was less than 10 µM throughout.
For `O=C(c1ccccc1)N1CCC(CN2CCc3cc(-c4cn[nH]c4)ccc32)C1` (centres unmarked) [Example 9, (3-((5-(1H-pyrazol-4-yl)indolin-1-yl)methyl)pyrrolidin-1-yl)(phenyl)methanone], the IC50 is less than 10 µM in experiment [1], greater than 10 µM in experiment [2] and greater than 10 µM in experiment [3].
On to `O=C(Cc1ccccc1)N1CCC(CN2CCc3cc(-c4cn[nH]c4)ccc32)C1` (centres unmarked) [Example 10, 1-(3-((5-(1H-pyrazol-4-yl)indolin-1-yl)methyl)pyrrolidin-1-yl)-2-phenylethanone], for which the IC50 in experiment [1], in experiment [2] and in experiment [3] was less than 10 µM throughout.
On to `O=C(CCc1ccccc1)N1CCC(CN2CCc3cc(-c4cn[nH]c4)ccc32)C1` (centres unmarked) [Example 11, 1-(3-((5-(1H-pyrazol-4-yl)indolin-1-yl)methyl)pyrrolidin-1-yl)-3-phenylpropan-1-one], for which the IC50 in experiment [1], in experiment [2] and in experiment [3] was less than 10 µM each time.
Regarding `O=C(C1CCCCC1)N1CCC(CN2CCc3cc(-c4cn[nH]c4)ccc32)C1` (centres unmarked) [Example 12, (3-((5-(1H-pyrazol-4-yl)indolin-1-yl)methyl)pyrrolidin-1-yl)(cyclohexyl)methanone], the half-maximal inhibitory concentration (IC50) was less than 10 µM in experiment [1], greater than 10 µM in experiment [2] and less than 10 µM in experiment [3].
As for `O=C(CC1CCCCC1)N1CCC(CN2CCc3cc(-c4cn[nH]c4)ccc32)C1` (centres unmarked) [Example 13, 1-(3-((5-(1H-pyrazol-4-yl)indolin-1-yl)methyl)pyrrolidin-1-yl)-2-cyclohexylethanone], the half-maximal inhibitory concentration (IC50) in experiment [1] was less than 10 µM; in experiment [2], greater than 10 µM; in experiment [3] it was less than 10 µM.
Regarding `CC(C)CC(=O)N1CCC(CN2CCc3cc(-c4cn[nH]c4)ccc32)C1` (centres unmarked) [Example 14, 1-(3-((5-(1H-pyrazol-4-yl)indolin-1-yl)methyl)pyrrolidin-1-yl)-3-methylbutan-1-one], the values for the half-maximal inhibitory concentration (IC50) in experiment [1], in experiment [2] and in experiment [3] were less than 10 µM, greater than 10 µM and less than 10 µM, respectively.
Turning to `CC(C)C(=O)N1CCC(CN2CCc3cc(-c4cn[nH]c4)ccc32)C1` (centres unmarked) [Example 15, 1-(3-((5-(1H-pyrazol-4-yl)indolin-1-yl)methyl)pyrrolidin-1-yl)-2-methylpropan-1-one], the IC50 was greater than 10 µM in experiment [1], less than 10 µM in experiment [2] and greater than 10 µM in experiment [3].
As to `CC1CC(CN2CCc3cc(-c4cn[nH]c4)ccc32)CN1C(=O)c1ccccc1` (centres unmarked) [Example 24, (4-((5-(1H-pyrazol-4-yl)indolin-1-yl)methyl)-2-methylpyrrolidin-1-yl)(phenyl)methanone], the half-maximal inhibitory concentration (IC50) in experiment [1], in experiment [2] and in experiment [3] was less than 10 µM throughout.
For `CC1CC(CN2CCc3cc(-c4cn[nH]c4)ccc32)CN1C(=O)Cc1ccccc1` (centres unmarked) [Example 25, 1-(4-((5-(1H-pyrazol-4-yl)indolin-1-yl)methyl)-2-methylpyrrolidin-1-yl)-2-phenylethanone], the IC50 in experiment [1], in experiment [2] and in experiment [3] was less than 10 µM throughout.
For the molecule `CC1CC(CN2CCc3cc(-c4cn[nH]c4)ccc32)CN1C(=O)CCc1ccccc1` (centres unmarked) [Example 26, 1-(4-((5-(1H-pyrazol-4-yl)indolin-1-yl)methyl)-2-methylpyrrolidin-1-yl)-3-phenylpropan-1-one], the IC50 in experiment [1], in experiment [2] and in experiment [3] was less than 10 µM in each case.
For the molecule `CC1CC(CN2CCc3cc(-c4cn[nH]c4)ccc32)CN1C(=O)C1CCCCC1` (centres unmarked) [Example 27, (4-((5-(1H-pyrazol-4-yl)indolin-1-yl)methyl)-2-methylpyrrolidin-1-yl)(cyclohexyl)methanone], the IC50 in experiment [1], in experiment [2] and in experiment [3] was less than 10 µM in each case.
Consider `CC1CC(CN2CCc3cc(-c4cn[nH]c4)ccc32)CN1C(=O)CC1CCCCC1` (centres unmarked) [Example 28, 1-(4-((5-(1H-pyrazol-4-yl)indolin-1-yl)methyl)-2-methylpyrrolidin-1-yl)-2-cyclohexylethanone], for which the half-maximal inhibitory concentration (IC50) in experiment [1], in experiment [2] and in experiment [3] was less than 10 µM each time.
On to `CC(C)CC(=O)N1CC(CN2CCc3cc(-c4cn[nH]c4)ccc32)CC1C` (centres unmarked) [Example 29, 1-(4-((5-(1H-pyrazol-4-yl)indolin-1-yl)methyl)-2-methylpyrrolidin-1-yl)-3-methylbutan-1-one], for which the concentration for half-maximal inhibition (IC50) in experiment [1], in experiment [2] and in experiment [3] was less than 10 µM throughout.
For `CC(C)C(=O)N1CC(CN2CCc3cc(-c4cn[nH]c4)ccc32)CC1C` (centres unmarked) [Example 30, 1-(4-((5-(1H-pyrazol-4-yl)indolin-1-yl)methyl)-2-methylpyrrolidin-1-yl)-2-methylpropan-1-one], the IC50 in experiment [1], in experiment [2] and in experiment [3] was less than 10 µM each time.
On to `O=C(c1ccccc1)N1CCC(CN2CCc3cc(-c4cn[nH]c4)ccc32)CC1` [Example 39, (4-((5-(1H-pyrazol-4-yl)indolin-1-yl)methyl)piperidin-1-yl)(phenyl)methanone], for which the half-inhibitory concentration (IC50) in experiment [1] is less than 10 µM; in experiment [2], greater than 10 µM; in experiment [3] it was less than 10 µM.
As for `O=C(Cc1ccccc1)N1CCC(CN2CCc3cc(-c4cn[nH]c4)ccc32)CC1` [Example 40, 1-(4-((5-(1H-pyrazol-4-yl)indolin-1-yl)methyl)piperidin-1-yl)-2-phenylethanone], the IC50 in experiment [1], in experiment [2] and in experiment [3] was less than 10 µM throughout.
Take `O=C(CCc1ccccc1)N1CCC(CN2CCc3cc(-c4cn[nH]c4)ccc32)CC1` [Example 41, 1-(4-((5-(1H-pyrazol-4-yl)indolin-1-yl)methyl)piperidin-1-yl)-3-phenylpropan-1-one]: the IC50 in experiment [1], in experiment [2] and in experiment [3] was less than 10 µM each time.
Take `O=C(c1ccccc1)N1CCC(Cn2ccc3cc(-c4cn[nH]n4)ccc32)CC1` [Example 130, (4-((5-(2H-1,2,3-triazol-4-yl)-1H-indol-1-yl)methyl)piperidin-1-yl)(phenyl)methanone]: the 50% inhibitory concentration (IC50) in experiment [1] and in experiment [3] was less than 10 µM in each case.
